According to patent US20240307374A1, “FORMULATION OF FURIN INHIBITOR FOR INHALATION” (BP ASSET V, INC., priority 2021, published 2024):
Converted amounts (≈) assume the structure as drawn. “Also recorded” adds a separate entry of the source. Marks after values point to notes of the source that are not given here.

Experiments:
Type in all cases: physicochemical
Grinding stability = details: ~30 mg ground manually in a mortar for about 5 minutes
[1] = Equilibrium solubility in pH buffers (3.0-8.0), 20% captisol and water
Method: Additional solids were added into the sample to generate suspension if clear solution obtained. The suspension was equilibrated via stirring (1000 rpm). The suspension was centrifuged to obtain precipitate and supernatants.
Solubility and pH were tested for the supernatants after filtration, and isolated precipitate was tested by XRPD.
(§1) • 1. pH=3.0 buffer (50 mM HCl+KCl): Weigh 365.39 mg KCl into a 100 mL volumetric flask (VF), and add 0.1 mL 1M HCl into the VF, and dilute to volume with water. • 2. pH=4.0 buffer (50 mM citrate): Weigh 56.74 mg citric acid and 60.18 mg trisodium citrate into a 10 mL volumetric flask, and dilute to volume with water. • 3. pH=5.0 buffer (50 mM citrate) Weigh 11.12 mg citric acid and 95.38 mg trisodium citrate into a 10 mL volumetric flask, and dilute to volume with water. • 4. pH=6.0 buffer (50 mM citrate) Weigh 11.04 mg citric acid and 130.2 mg trisodium citrate into a 10 mL volumetric flask, and dilute to volume with water. • 5. pH=6.0 buffer (50 mM phosphate) Weigh 8.7 mg Na2HPO4 and 52.6 mg NaH2PO4 into a 10 mL volumetric flask, and dilute to volume with water. • 6. pH=7.0 buffer (50 mM phosphate) Weigh 23.47 mg Na2HPO4 and 43.34 mg NaH2PO4into a 10 mL volumetric flask, and dilute to volume with water. • 7. pH=8.0 buffer (50 mM phosphate) Weigh 31.64 mg Na2HPO4 and 67.18 mg NaH2PO4into a 10 mL volumetric flask, and dilute to volume with water.

[2] = Equilibrium solubility in pH buffers (pH 4.0-6.0) with pH adjustment; details: for S: solubility: RT, with pH adjustment
Method: In details, ˜5 mg of solids were suspended into 1 mL of each medium with dosing conc. at ˜5 mg/mL. Additional solids were added into the sample to generate suspension if clear solution was obtained. The suspension was equilibrated via stirring (1000 rpm) for 24 hours. The pH of the suspension was adjusted when the final pH shifted above 0.3, and the samples were stirred for another 1.5 hours after pH adjustment. The suspension was centrifuged to obtain precipitate and supernatants. Solubility, purity and pH were tested for the supernatants after filtration, and isolated precipitate was tested by XRPD.
as §1

[3] = Humidity induced experiments (solid-state stability of freeform Type D under different humidities); details: ~7%, ~22%, ~43%, ~58%, ~84% RH, RT, 6 weeks
Method: The 3-mL vial was then placed into a 20-mL vial with 4 mL of the corresponding saturated salt solution. The 20-mL vial was sealed with a cap and kept at RT for the water vapor to interact with the solid.

[4] = Complexation stability constant test: solubility in HPβCD solutions; details: for solubility at 24 h: thermodynamic from solid
Method: Additional solid was added into the sample to generate suspension if clear solution was obtained. The suspension was equilibrated via stirring (1000 rpm) for 24 hours. The suspension was centrifuged to obtain precipitate and supernatants. Solubility and pH was determined for the supernatants after filtration, and XRPD was obtained for the isolated precipitate.

[5] = Solution stability in citrate buffers; details: 28 days
Method: The stability samples were stored under 5° C. and 25° C. for 28 days, respectively. After 28 days storage, the stability samples were taken out for HPLC test and pH test.
Waters H-class UPLC (ultra-performance liquid chromatography) was used for purity, solubility, assay and stability test. Detailed method is shown in Table 9-22, Table 9-23 and Table 9-24.

[6] = 20% Captisol (pH = 5.0, w/v), 24 hrs
[7] = pH = 3.0 buffer (50 mM HCl + KCl), 24 hrs
[8] = pH = 5.0 buffer (50 mM citrate), 24 hrs
[9] = pH = 6.0 buffer (50 mM citrate), 24 hrs
[10] = pH = 7.0 buffer (50 mM phosphate), 24 hrs
[11] = pH = 8.0 buffer (50 mM phosphate), 24 hrs
[12] = pH = 4.0 buffer (50 mM citrate)
[13] = pH = 5.0 buffer (50 mM citrate)
[14] = pH = 6.0 buffer (50 mM citrate)
[15] = pH = 6.0 buffer (50 mM phosphate)
[16] = ~1 mg/mL in 10 mM citrate buffer (pH 4.3), 5° C.
[17] = ~1 mg/mL in 10 mM citrate buffer (pH 4.3), 25° C.
[18] = ~40 mg/mL in 100 mM citrate buffer (pH 4.1), 5° C.
[19] = ~40 mg/mL in 100 mM citrate buffer (pH 4.1), 25° C.

CC(=O)NCC1CCN(Cc2cc(Oc3ccc(N4CCN(CCC(=O)O)CC4)nc3)nc(-c3cc(Cl)cc(Cl)c3)c2)CC1 [Freeform Type A]
crystallinity after grinding (XRPD) (Grinding stability): decreased after grinding
solubility at 24 h ([1]; 50 mM phosphate buffer, 21 °C, pH 8, aqueous buffer, thermodynamic from solid, pH = 8.0 buffer (50 mM phosphate), RT, 24 hrs, read-out: S: solubility): 20 µg/mL (≈ 31.2 µM)
FC: form change (XRPD of precipitate) [1, 6]: N (N: solid form not changed)
pH of supernatant (final pH) [1, 6]: 7.7
S: solubility ([1]; 20% Captisol (pH = 5.0, w/v), RT, 24 hrs): 12.1 mg/mL
FC: form change (XRPD of precipitate) ([1]; H2O, 24 hrs): N (N: solid form not changed)
pH of supernatant (final pH) ([1]; H2O, 24 hrs): 6.8
form change after equilibrium in all media ([1]; all media, 24 hours): No form change
FC: form change (XRPD of precipitate) [1, 7]: N (N: solid form not changed)
pH of supernatant (final pH) [1, 7]: 6.3
S: solubility ([1]; pH = 3.0 buffer (50 mM HCl + KCl), RT, 24 hrs): 0.05 mg/mL
pH of supernatant (final pH) ([1]; pH = 4.0 buffer (50 mM citrate), 24 hrs): 4.8
S: solubility ([1]; pH = 4.0 buffer (50 mM citrate), RT, 24 hrs): >17.9^# mg/mL
FC: form change (XRPD of precipitate) [1, 8]: N (N: solid form not changed)
pH of supernatant (final pH) [1, 8]: 5.2
S: solubility ([1]; pH = 5.0 buffer (50 mM citrate), RT, 24 hrs): 3.31 mg/mL
FC: form change (XRPD of precipitate) [1, 9]: N (N: solid form not changed)
pH of supernatant (final pH) [1, 9]: 6.1
S: solubility ([1]; pH = 6.0 buffer (50 mM citrate), RT, 24 hrs): 0.18 mg/mL
FC: form change (XRPD of precipitate) [1, 10]: N (N: solid form not changed)
pH of supernatant (final pH) [1, 10]: 7.1
FC: form change (XRPD of precipitate) [1, 11]: N (N: solid form not changed)
pH of supernatant (final pH) [1, 11]: 8.0
form change after equilibrium in all media ([2]; all media, 24 hours): No form change
Area % (purity of supernatant) [2, 12]: 99.9 Area %
pH (final, after adjustment where adjusted) [2, 12]: 4.2*
pH before adjustment (in brackets) ([2]; pH = 4.0 buffer (50 mM citrate), 24 hours): (5.0)
S: solubility [2, 12]: >36.9^# mg/mL
Area % (purity of supernatant) [2, 13]: 99.6 Area %
FC: form change (XRPD of precipitate) [2, 13]: N (N: solid form not changed)
pH (final, after adjustment where adjusted) [2, 13]: 5.2
S: solubility [2, 13]: 3.31 mg/mL
Area % (purity of supernatant) [2, 14]: 99.6 Area %
FC: form change (XRPD of precipitate) [2, 14]: N (N: solid form not changed)
pH (final, after adjustment where adjusted) [2, 14]: 6.0
S: solubility [2, 14]: 0.15 mg/mL
Area % (purity of supernatant) [2, 15]: 99.3 Area %
FC: form change (XRPD of precipitate) [2, 15]: N (N: solid form not changed)
pH (final, after adjustment where adjusted) [2, 15]: 6.0
S: solubility [2, 15]: 0.11 mg/mL

CC(=O)NCC1CCN(Cc2cc(Oc3ccc(N4CCN(CCC(=O)O)CC4)nc3)nc(-c3cc(Cl)cc(Cl)c3)c2)CC1 [Freeform Type D]
form change after exposure to different humidity levels (XRPD) [3]: no form change; also recorded: kinetically stable for at least 6 weeks
solubility at 24 h ([4]; 5% (w/w) HPβCD solution, aqueous with cosolvent or surfactant or cyclodextrin, 5% (w/w) HPβCD, RT, 24 hours, final pH 7.3, read-out: Solubility): 420 µg/mL
solubility at 24 h ([4]; 5% (w/w) HPβCD solution, pH 7.3, aqueous with cosolvent or surfactant or cyclodextrin, 5% HPβCD (40.78 mmol/L), read-out: API Solubility): 660 µM
solubility at 24 h ([4]; 10% (w/w) HPβCD solution, aqueous with cosolvent or surfactant or cyclodextrin, 10% (w/w) HPβCD, RT, 24 hours, final pH 7.2, read-out: Solubility): 940 µg/mL
solubility at 24 h ([4]; 10% (w/w) HPβCD solution, pH 7.2, aqueous with cosolvent or surfactant or cyclodextrin, 10% HPβCD (81.56 mmol/L), read-out: API Solubility): 1470 µM
solubility at 24 h ([4]; 15% (w/w) HPβCD solution, aqueous with cosolvent or surfactant or cyclodextrin, 15% (w/w) HPβCD, RT, 24 hours, final pH 7.1, read-out: Solubility): 1420 µg/mL
solubility at 24 h ([4]; 15% (w/w) HPβCD solution, pH 7.1, aqueous with cosolvent or surfactant or cyclodextrin, 15% HPβCD (122.34 mmol/L), read-out: API Solubility): 2220 µM
solubility at 24 h ([4]; 20% (w/w) HPβCD solution, aqueous with cosolvent or surfactant or cyclodextrin, 20% (w/w) HPβCD, RT, 24 hours, final pH 7.0, read-out: Solubility): 2090 µg/mL
solubility at 24 h ([4]; 20% (w/w) HPβCD solution, pH 7, aqueous with cosolvent or surfactant or cyclodextrin, 20% HPβCD (163.11 mmol/L), read-out: API Solubility): 3260 µM
solubility at 24 h ([4]; 25% (w/w) HPβCD solution, aqueous with cosolvent or surfactant or cyclodextrin, 25% (w/w) HPβCD, RT, 24 hours, final pH 7.0, read-out: Solubility): 2890 µg/mL
solubility at 24 h ([4]; 25% (w/w) HPβCD solution, pH 7, aqueous with cosolvent or surfactant or cyclodextrin, 25% HPβCD (203.89 mmol/L), read-out: API Solubility): 4510 µM
form change during solubility evaluation (XRPD) ([4]; HPβCD solutions, 24 hours): No form change
complexation stability constant K^1:1 ([4]; HPβCD, Higuchi-Connors phase-solubility method): 1529 M⁻¹
degradation ([5]; 40 mg/mL in 100 mM citrate buffer, 5° C. and 25° C.): No significant degradation
Appearance [5, 16]: yellow solution
Assay [5, 16]: 68.4%
Purity [5, 16]: 89.0 Area %
pH [5, 16]: 4.7
Appearance [5, 17]: cloudy and yellow
Assay [5, 17]: 11.6%
Purity [5, 17]: 78.9 Area %
pH [5, 17]: 4.6
Appearance [5, 18]: became cloudy
Assay [5, 18]: 95.0%
Purity [5, 18]: 99.7 Area %
pH [5, 18]: 4.8
Appearance [5, 19]: remained a clear solution
Assay [5, 19]: 98.9%
Purity [5, 19]: 99.5 Area %
pH [5, 19]: 4.9
